Like-named read-outs stand apart in the source and are kept apart here.
Experiments:
[1] = system: Recombinant NADH/NADPH dehydrogenase; assay: NADH/NADPH dehydrogenase-mediated ROS generation assay; format: biochemical; settings: 30 μM, 4 h at 37°C; for H2O2 generation, NADH/NADPH dehydrogenase -: absence of NADH/NADPH dehydrogenase; for H2O2 generation, NADH/NADPH dehydrogenase +: presence of NADH/NADPH dehydrogenase
Description: Recombinant NADH/NADPH dehydrogenase (0.5 units/well) in a 96-well plate was incubated in 100 μl of the assay buffer (50 mM potassium phosphate buffer, pH 7.5 supplemented with 1 mM EDTA) containing NADPH (3 μM) and superoxide dismutase (SOD) (100 units/well) with and without compound (30 μM) for 4 h at 37°C. At the end of incubation, the level of hydrogen peroxide was measured using a Hydrogen Peroxide Assay kit (Cayman). Control samples were without NADH/NADPH dehydrogenase. The rate of NADH/NADPH dehydrogenase- and compound-mediated ROS production was determined by subtracting values that were obtained in the absence of NADPH dehydrogenase. One unit of NADH/NADPH dehydrogenase was defined as the amount of enzyme required to reduce 1.0 μmole cytochrome C per min/mg in the presence of menadione substrate at 37°C. One unit of SOD was defined as the amount of enzyme required to inhibit reduction of cytochrome C by 50% in a coupled system with xanthine oxidase at pH 7.8 at 25°C in a 3.0 mL reaction volume. Xanthine oxidase concentration should produce an initial ΔA550 of 0.025 ± 0.005 per min.
As the next step, we examined the capability of the selected compounds to generate ROS in the presence or absence of NADH/NADPH dehydrogenase (Table 1). ROS can be generated by NADH/NADPH-dehydrogenase via the one electron reduction of a quinone ring of 1,4-NQs. Unstable half-reduced quinones (semiquinones) transfer electrons to molecular oxygen, thus generating superoxide anion radicals (O2^●-), which are converted by SOD to hydrogen peroxide. We believe that our assay measuring compound’s ability to generate H2O2 in the presence or absence of NADH/NADPH dehydrogenase more closely resembles conditions inside the cell than the assay designed to measure compound’s redox potential values. […] To determine the ability of compounds to induce ROS, compounds were incubated for 4 h at 37°C with and without NADH/NADPH-dehydrogenase in the presence of NADPH as an electron donor and SOD to convert generated superoxide radicals into hydrogen peroxide. At the end of incubation, 10-acetyl-3,7-dihydroxyphenoxazine (ADHP) and horseradish peroxidase (HRP) were added to the reaction and the level of HRP-mediated formation of the fluorogenic product, resorufin, was measured on a plate reader. ROS production was detected in reactions with either the toxic or non-toxic compounds.

MIA PaCa-2 cells = assay: Hydrogen peroxide cell-based assay (ROS induction), MIA PaCa-2 cells; settings: Homo sapiens, hydrogen peroxide level relative to DMSO-treated cells (100%), read-out: ROS increase, % MIA PaCa-2
Description: Cells were incubated for 2 h with either compounds (30 μM) or DMSO in a 96-well plate. After the treatment, 80 μl of cell culture medium was collected and the level of hydrogen peroxide was determined using a Hydrogen Peroxide Cell-Based Assay kit (Cayman).
Cells were incubated with the compounds for 4 h and the level of ROS induction was measured by a hydrogen peroxide cell-based assay kit. Compounds were assayed at a fixed concentration of 30 μM and the measured level of hydrogen peroxide was expressed as percentage in relation to DMSO-treated cells (100%). […] This distinction was more evident for compounds with the highest selective cytotoxicity index. […] We conclude that the selective induction of ROS in cancer cells is required but not sufficient factor for the selective anti-tumor activity.

[2] = system: human primary hepatocytes; assay: cells; settings: Hepatocyte
Description: (§2) We selected hepatocytes as normal cells because hepatocytes are mediate toxicity to multiple drugs and are used as a standard to assess toxicity of drugs in vitro [28]. […] For comparison with the standard of care, doxorubicin was also included in this analysis.

[3] = system: human primary hepatocytes; settings: for EC50: read-out: EC50, μM Hepatocytes ATO, in the presence of ATO (5 μM), SD does not exceed 10%
Description: as §2

[4] = system: PANC1 pancreatic carcinoma cells; assay: Combined treatment with pancreatic cancer drugs, PANC1 cells; format: cell-based, Human; settings: NSC130362 10 μM 2 h, then drugs 10 μM 24 h
Description: (§1) Fig 2 Combined treatment of NSC130362 with pancreatic cancer drugs against PANC1 and YAPC cells. Cells were pre-incubated with NSC130362 (10 μM) for 2 h followed by addition of drugs (10 μM) and incubation for an additional 24 h. […] The first bar is NSC130362 alone. *, P<0.05.

[5] = system: chemotherapy resistant prostate carcinoma cells; assay: Combined treatment with ATO, docetaxel, MDV3100, prostate cancer cells; format: cell-based; settings: NSC130362 10 μM 2 h
Description: Fig 3 Combined treatment of NSC130362 with ATO, docetaxel, and MDV3100 against prostate cancer cells. Cells were pre-incubated with NSC130362 (10 μM) for 2 h followed by addition of drugs (10 μM) and incubation for an additional 24 h. […] The first bar in the treatment of each cell line is NSC130362 alone. *, P<0.05.

[6] = system: YAPC pancreatic carcinoma cells; assay: Combined treatment with pancreatic cancer drugs, YAPC cells; format: cell-based, Human; settings: NSC130362 10 μM 2 h, then drugs 10 μM 24 h
Description: as §1

[7] = in words; cited from earlier work
[8] = in words; cited from earlier work; remark: listed apart in the source

SMILES | H2O2 generation, NADH/NADPH dehydrogenase - [1] | H2O2 generation, NADH/NADPH dehydrogenase + [1] | activity at 30 µM (MIA PaCa-2 cells) | EC50 ([2]; read-out: EC50, μM Hepatocytes) | also measured
CCCCOCCCNC1=C(Cl)C(=O)c2ccccc2C1=O [compound 26] | 5.9 µM | 3.8 µM | 889% | 4.8 µM | EC50 ([2]; read-out: EC50, toxicity to hepatocytes): 3.6 µM
CCCC(=O)NC1=C(Cl)C(=O)c2ccccc2C1=O [compound 31] | 5.7 µM | 9.0 µM | 251% | 1.6 µM | –
CC1CN1C1=C(Cl)C(=O)c2ccccc2C1=O (centres unmarked) [compound 16] | 2.1 µM | 3.8 µM | 637% | 78 µM | toxicity against normal cells ([3]; hepatocytes, in words): completely non-toxic against normal cells
O=C1C(Nc2ccccc2)=CC(=O)c2ncccc21 [compound 67, reference compound] | 5.5 µM | 11.9 µM | 783% | 17.8 µM | EC50 [3]: 19.4 µM; decrease in toxicity to hepatocytes ([3]; versus compound 64): 3 fold
O=C1C(Cl)=C(NCCO)C(=O)c2ccccc21 [compound 17] | 2.6 µM | 4.8 µM | 295% | 83 µM | effect on apoptosis induction by pancreatic cancer drugs, PANC1 [4]: significantly increased the ability of all tested pancreatic cancer drugs; potentiation of docetaxel-induced cytotoxicity ([5]; then docetaxel 10 μM 24 h): potentiated docetaxel-induced cytotoxicity, but to a lesser extent; potentiation of ATO or MDV3100 effect on cell viability ([5]; then drugs 10 μM 24 h): efficiently potentiated the effect on cell viability of either ATO or MDV3100; effect on apoptosis induction by pancreatic cancer drugs, YAPC [6]: significantly increased the ability of all tested pancreatic cancer drugs; half-life in the mouse bloodstream [7]: short half-life; anti-tumor activity in vivo [8]: demonstrated anti-tumor activity in vivo
CCNC1=CC(=O)c2ncccc2C1=O [compound 66] | 5.4 µM | 10.3 µM | 626% | > 90 µM | EC50 [3]: > 90 µM
CCNC1=C(Cl)C(=O)c2ccccc2C1=O [compound 3] | 3.9 µM | 6.3 µM | 182% | 81.9 µM | –
O=C1C(Cl)=C(Nc2nccs2)C(=O)c2ccccc21 [compound 38] | 1.9 µM | 2.7 µM | 100% | 26 µM | –
O=C1C=C(SCCO)C(=O)c2ccccc21 [compound 60] | 6.9 µM | 12.7 µM | – | 3.3 µM | EC50 [3]: 1.7 µM
COC1=C(N(C)C)C(=O)c2ccccc2C1=O [compound 53] | 1.5 µM | 2.5 µM | 446% | > 90 µM | –
CCCCCCCNC1=C(Cl)C(=O)c2ccccc2C1=O [compound 8] | 2.0 µM | 2.8 µM | 110% | 78.6 µM | –
COCCNC1=C(Cl)C(=O)c2ccccc2C1=O [compound 21] | 6.5 µM | 6.4 µM | 254% | 60.4 µM | increase in toxicity to hepatocytes ([3]; versus compound 3): approximately 3 fold
O=C1C(Cl)=C(Nc2ccccc2)C(=O)c2ccccc21 [compound 39] | 1.6 µM | 2.8 µM | – | 2.3 µM | –
NC1=C(Cl)C(=O)c2ccccc2C1=O [compound 1, 2-chloro-3-amino-1,4-NQ] | 4.1 µM | 7.6 µM | 331% | 17 µM | –
CCCCC(=O)NC1=C(Cl)C(=O)c2ccccc2C1=O [compound 32] | 6.3 µM | 10.6 µM | 506% | 2.2 µM | –
COC1=C(N2CC2)C(=O)c2ccccc2C1=O [compound 54] | 2.4 µM | 3.9 µM | 675% | > 90 µM | –
O=C1C(Cl)=C(NCCc2ccccc2)C(=O)c2ccccc21 [compound 36] | 7.0 µM | 6.3 µM | 721% | 8.8 µM | –
CC(C)(C)NC1=C(Cl)C(=O)c2ccccc2C1=O [compound 13] | 2.7 µM | 4.3 µM | 248% | 29.9 µM | –
CC1=C(N2CC2)C(=O)c2ccccc2C1=O [compound 55] | 2.1 µM | 3.3 µM | 416% | > 90 µM | reduction in toxicity to hepatocytes ([3]; versus compound 15): more than 10 fold
Cc1ccccc1NC1=C(Cl)C(=O)c2ccccc2C1=O [compound 40] | 5.0 µM | 2.9 µM | 111% | 24.5 µM | –
